Laboratory results published in patent publication US11660326B2, “Bacterial-binding peptides for treatment of infectious diseases and related inflammatory processes” (priority 2018, dated 2023).
Read-outs that look alike come from different tables or passages of the source.

Legend:
[1] = tested on: mice undergoing CLP-induced septic shock; experiment: Blood and spleen bacterial load following CLP-induced sepsis; assay type: in vivo, C57BL/6J mice; conditions: 20 h post CLP; 6 mg/kg i.v. at +1 h; vs saline control group
Protocol: (§1) FIG. 9. Therapeutic effect of CD6.PD3 infusion on cytokine and bacterial load levels following CLP-induced sepsis. (A) C57BL/6J mice were i.v. infused at +1 h post CLP with saline (n=7) or CD6.PD3 peptide (6 mg/kg; n=9), and cytokine plasma levels were monitored by ELISA at different time points (4 h and 20 h) thereafter. Data are expressed as mean±SD. (B) Same mouse groups as in (A) were monitored for blood and spleen bacterial load at 20 h following CLP induction. Data are expressed as mean±SD of CFU/mg (spleen) or CFU/μL (blood). In all cases, statistical differences were evaluated using a 2-tailed Student t-test (*, P<0.05).
For the assessment of bacterial load, blood and spleen samples from CLP-treated mice were collected, homogenized and diluted aseptically in sterile PBS. Serial dilutions were plated overnight on agar with 5% sheep blood (Becton Dickinson) at 37° C. Viable bacterial counts were expressed as CFU/mL (blood) or per mg (spleen).

[2] = Endotoxin adsorption on peptide/protein-coated Eupergit beads (LAL assay); conditions: 50 UI/mL LPS, 0-150 min, vs HSA- and rshCD5-coated controls
Protocol: FIG. 11. Endotoxin adsorption assays on immobilized CD6-derived peptides and proteins. Eupergit® beads coated with different CD6-derived peptides (PD2, PD3, and Pcons) (A) or proteins (rshCD5 and rshCD6) (B) were incubated for different periods of time (0, 30, 90 and 150 min) with a 50 UI/mL endotoxin solution. Limulus amoebocyte lysate activating activity (LAL activity) of supernatants was then monitored along time and the OD 405-620 nm represented. Beads coated with Human Serum Albumin (HSA) were used as negative controls. Shown are triplicates of a representative experiment from two independent performed. Statistical analysis was done by using the 2-tailed paired T test with 95% confidence interval (***, P<0.001).
Proteins or peptides (2.5 mg each) were immobilized via NH2 groups on macroporous acrylic EUPERGIT© beads (0.2 g; Röhm-Pharma GmbH, Germany) following a previously described protocol (Zimmermann M, et al., 1999, Endotoxin adsorbent based on immobilized human serum albumin. Clin Chem Lab Med 37:373-379). Peptide or protein-coated Eupergit® beads are obtained by incubation with stirring of the polymeric beads at room temperature with a solution of the peptides of the invention in sodium phosphate buffer 100 mM pH 8 for 24 hours. After incubation, the beads were washed 3 times with 3 M sodium chloride pH 7.0, 30 mM sodium phosphate buffer pH 4.0 and 30 mM sodium phosphate buffer pH 8.0. Finally, 154 mM sodium chloride solution pH 7.0 was added to the peptide or protein-coated beads.
LPS detection was performed by using the turbidimetric-kinetic Limulus Amebocyte Lysate (LAL) kit-QCL (50-650U, Lonza) following manufacturer's instructions. Protein/peptide-coated EUPERGIT® beads were incubated 1:1 (v:v) with the provided endotoxin solution (50 UI/mL) for different periods of time (0-150 min) at room temperature following manufacturer's instructions.

[3] = tested on: mice undergoing CLP-induced septic shock; experiment: Plasma cytokine levels following CLP-induced sepsis; assay type: in vivo, C57BL/6J mice; conditions: 20 h post CLP; 6 mg/kg i.v. at +1 h; vs saline-treated group
Protocol: as §1
Animal procedures were approved by the Animal Experimentation Ethical Committee, University of Barcelona. High-grade mortality (≥90% mortality within the first 48-72 h) CLP-induced septic shock was induced in 8-10 week old C57BL/6J male mice (20-25 g; Charles River) as previously reported (Martinez-Florensa M, et al., 2017, Protective Effects of Human and Mouse Soluble Scavenger-Like CD6 Lymphocyte Receptor in a Lethal Model of Polymicrobial Sepsis, Antimicrob Agents Chemother 61:e01391-16).

[4] = Intrinsic tryptophan fluorescence binding, apparent Kd for LTA; set-up: species or system S. aureus; conditions: for Kd: PBS, peptide 10 μg/mL, Hill fit
Protocol: (§2) FIG. 4. Kd analysis of the LPS and LTA interaction with CD6-derived peptides and protein. The apparent Kd values for the binding of peptides and proteins in study to LPS and LTA determined by fluorescence emission of tryptophan residues are shown. Peptides/proteins (10 μg/mL) were titrated with or without increasing concentrations of Re-LPS or LTA in PBS. Peptide samples (with and without either Re-LPS or LTA) and blank samples (Re-LPS or LTA alone) were excited at 295 nm, and the emission spectra recorded from 300 to 400 nm. Results are expressed as the change in peptide fluorescence (AF) at the wavelength of the emission maxima (353 nm for the peptides and 337 nm for rshCD6 protein) in the presence and absence of either Re-LPS or LTA. Results are means±SD of 3 experiments. Peptide fluorescence changes at 353 nm were fitted to the Hill equation.
(§3) Intrinsicfluorescence experiments. To explore the ability of different peptides/proteins to bind LTA (Mr=14,000, from S. aureus) and rough LPS (Re-LPS, Mr=2500, from Salmonella minnesota serotype Re 595), binding studies were carried out in an AB2 spectrofluorimeter with a thermostated cuvette holder (±0.1° C.), using 5×5 mm path-length quartz cuvettes as described (Coya J M, et al., 2015, Natural Anti-Infective Pulmonary Proteins: In Vivo Cooperative Action of Surfactant Protein SP-A and the Lung Antimicrobial Peptide SP-BN, J Immunol 195:1628-36). Re-LPS concentration was assessed by quantification of 2-keto-3-deoxyoctulosonic acid (Garcia-Verdugo I, et al., 2003, Effect of hydroxylation and N187-linked glycosylation on molecular and functional properties of recombinant human surfactant protein A, Biochemistry 42:9532-42). Peptide/protein samples (10 μg/mL) were titrated with different amounts of a stock solution of either LTA or Re-LPS in phosphate buffered saline (PBS) pH 7.2, and the Trp fluorescence emission spectra recorded with excitation at 295 nm. The fluorescence intensity readings were corrected for the dilution caused by […]. Background intensities in peptide/protein-free samples due to LTA or Re-PS were subtracted from each recording. The apparent dissociation constant (Kd) of peptide/protein-ligand complexes were obtained by nonlinear least-squares fitting to the Hill equation of the change in peptide fluorescence at 353 nm with the amount of added LTA or Re-LPS (Garcia-Verdugo I, et al., 2003, Effect of hydroxylation and N187-linked glycosylation on molecular and functional properties of recombinant human surfactant protein A, Biochemistry 42:9532-42): ΔF/ΔFmax=[L]^n/([L]^n+Kd), where ΔF is the change in fluorescence intensity at 353 nm relative to the intensity of free peptide; ΔFmax is the change in fluorescence intensity at saturating LTA or Re-LPS concentrations; [L] is the molar concentration of free ligand; and n is the Hill coefficient.

[5] = Intrinsic tryptophan fluorescence binding, apparent Kd for Re-LPS; set-up: species or system Salmonella minnesota serotype Re 595; conditions: for Kd: PBS, peptide 10 μg/mL, Hill fit
Protocol: as §2, §3

Sequence: GQVEVHFRGVW (CD6.PD3)
- CFU isolated from blood [1]: lower CFU
- CFU isolated from spleen [1]: lower CFU
- endotoxin levels (LAL assay) [2]: reduced endotoxin levels
- IL-1β level [3]: significant lower levels
- IL-6 level [3]: significant lower levels
- TNF-α level [3]: significant lower levels

Sequence: GRVEMLEHGEW [CD6.PD2]
- endotoxin levels (LAL assay) [2]: reduced endotoxin levels
- affinity / Kd for LTA, in words [4]: lower than the prototypical DMBT1.pbs1 and CD6.cons peptides or the rshCD6 protein itself
- Kd [4]: 0.31 ± 0.04 nM
- affinity / Kd for LTA, in words ([4]; listed as PD2): very high affinity
- affinity / Kd for LPS, in words [5]: lower than the prototypical DMBT1.pbs1 and CD6.cons peptides or the rshCD6 protein itself
- Kd [5]: 35 ± 2 nM
- affinity / Kd for LPS, in words ([5]; listed as PD2): very high affinity

Sequence: GTVEVRLEASW [CD6.PD1]
- affinity / Kd for LTA, in words [4]: lower than the prototypical DMBT1.pbs1 and CD6.cons peptides or the rshCD6 protein itself
- Kd [4]: 0.39 ± 0.06 nM
- affinity / Kd for LTA, in words ([4]; listed as PD1): very high affinity
- affinity / Kd for LPS, in words [5]: lower than the prototypical DMBT1.pbs1 and CD6.cons peptides or the rshCD6 protein itself
- Kd [5]: 3.5 ± 0.3 nM
- affinity / Kd for LPS, in words ([5]; listed as PD1): very high affinity
